According to ChEMBL document CHEMBL1201862, “PubChem BioAssay data set” (2004):
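A five-concentration, 48-hour dose response in 96-well plates underlies each endpoint, interpolated linearly between surrounding concentrations. GI50 = concentration required for 50% inhibition of growth.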 Activity calls are given as the source filed them. Rule as the data show it: active = GI50 up to about 1.1 µM and inactive = higher.

Legend:
Experiment in all cases: inhibition of tumour cell growth, NCI panel, 48 h
OVCAR-5 = system: OVCAR-5
U-251 = system: U-251
TK-10 = system: TK-10
MDA-MB-435 = system: MDA-MB-435
DU-145 = system: DU-145
NCI-H522 = system: NCI-H522
SK-MEL-5 = system: SK-MEL-5
OVCAR-4 = system: OVCAR-4
RPMI-8226 = system: RPMI-8226
KM12 = system: KM12
T47D = system: T47D
IGROV-1 = system: IGROV-1
UACC-257 = system: UACC-257
MCF7 = system: MCF7
EKVX = system: EKVX
NCI-H226 = system: NCI-H226
SF-268 = system: SF-268
SR = system: SR
SK-OV-3 = system: SK-OV-3

Row | SMILES | GI50 (OVCAR-5) | GI50 (U-251) | GI50 (TK-10) | GI50 (MDA-MB-435) | GI50 (DU-145) | GI50 (NCI-H522) | GI50 (SK-MEL-5) | GI50 (OVCAR-4) | GI50 (RPMI-8226) | GI50 (KM12) | GI50 (T47D) | GI50 (IGROV-1) | GI50 (UACC-257) | GI50 (MCF7) | GI50 (EKVX) | GI50 (NCI-H226) | GI50 (SF-268) | GI50 (SR) | GI50 (SK-OV-3)
1 | O[C@@H]1[C@H](OC2c3ccccc3-c3ccccc32)[C@H](OCc2ccccc2)[C@@H]2OC[C@H]1O2 | > 100 µM (inactive) | 43.3 µM (inactive) | > 100 µM (inactive) | > 100 µM (inactive) | > 100 µM (inactive) | > 100 µM (inactive) | > 100 µM (inactive) | 91 µM (inactive) | 71.9 µM (inactive) | > 100 µM (inactive) | > 100 µM (inactive) | > 100 µM (inactive) | > 100 µM (inactive) | > 100 µM (inactive) | > 100 µM (inactive) | > 100 µM (inactive) | 57.1 µM (inactive) |  | 
2 | COc1ccc([C@H](NC(=O)c2ccccc2)[C@@H](O)C(=O)O[C@H]2C[C@@]3(O)C(OC(=O)c4ccccc4)C4[C@](C)(C(=O)[C@H](OC(C)=O)C(=C2C)C3(C)C)[C@@H](O)C[C@H]2OC[C@@]42OC(C)=O)cc1 (stereo not given in full) | 0.182 µM (active) | 0.00695 µM (active) | 0.0703 µM (active) | < 0.001 µM (active) | 0.00248 µM (active) | 0.00227 µM (active) | 0.00244 µM (active) | 3.11 µM (inactive) | < 0.001 µM (active) | < 0.001 µM (active) |  | 0.00344 µM (active) | 0.00542 µM (active) | < 0.001 µM (active) | 0.22 µM (active) | 0.00673 µM (active) | 0.00415 µM (active) | 0.00182 µM (active) | 0.00117 µM (active)
3 | C=CCC1(C#N)C(=S)NC2=C(C(=O)CC(C)(C)C2)C1c1ccccc1 (stereo not given) | > 100 µM (inactive) | 30.9 µM (inactive) |  | 33 µM (inactive) | 19.2 µM (inactive) |  | 45.6 µM (inactive) | 31 µM (inactive) | 52.5 µM (inactive) | 32.7 µM (inactive) | 27.3 µM (inactive) | 55.1 µM (inactive) |  |  | 19.2 µM (inactive) | 71.4 µM (inactive) |  | 50.6 µM (inactive) | 
4 | COc1ccc(C2S/C(=C\c3ccccc3)C(=O)N2NC(=O)Cc2ccccc2)cc1 (stereo not given) | > 100 µM (inactive) | > 100 µM (inactive) | > 100 µM (inactive) |  |  | > 100 µM (inactive) | > 100 µM (inactive) | > 100 µM (inactive) | > 100 µM (inactive) | > 100 µM (inactive) |  | > 100 µM (inactive) | > 100 µM (inactive) |  |  | > 100 µM (inactive) | > 100 µM (inactive) | 68.5 µM (inactive) | > 100 µM (inactive)
5 | OCCCCCNc1cc(O)nc(O)n1 | > 100 µM (inactive) | > 100 µM (inactive) | > 100 µM (inactive) | > 100 µM (inactive) |  | > 100 µM (inactive) | > 100 µM (inactive) | > 100 µM (inactive) | > 100 µM (inactive) | > 100 µM (inactive) | > 100 µM (inactive) | > 100 µM (inactive) | > 100 µM (inactive) | > 100 µM (inactive) | > 100 µM (inactive) | > 100 µM (inactive) | > 100 µM (inactive) | > 100 µM (inactive) | > 100 µM (inactive)
6 | COc1cc2nc(-c3ccccc3F)nc(O)c2cc1OC | > 100 µM (inactive) |  | > 100 µM (inactive) |  | > 100 µM (inactive) | 89.5 µM (inactive) | > 100 µM (inactive) | > 100 µM (inactive) | > 100 µM (inactive) | > 100 µM (inactive) | > 100 µM (inactive) | > 100 µM (inactive) | > 100 µM (inactive) | 86.9 µM (inactive) | > 100 µM (inactive) | > 100 µM (inactive) | > 100 µM (inactive) | > 100 µM (inactive) | > 100 µM (inactive)
7 | Cn1cnc2c(OCC3CCCCC3)nc(N)nc21 | > 100 µM (inactive) | > 100 µM (inactive) | > 100 µM (inactive) | > 100 µM (inactive) | > 100 µM (inactive) | > 100 µM (inactive) | 70.6 µM (inactive) | > 100 µM (inactive) | > 100 µM (inactive) | > 100 µM (inactive) |  | 36.5 µM (inactive) | > 100 µM (inactive) | 11.7 µM (inactive) | > 100 µM (inactive) | 44.1 µM (inactive) | > 100 µM (inactive) |  | > 100 µM (inactive)
8 | COc1cc(/C=C2/SC(c3ccccc3)N(c3cccc([N+](=O)[O-])c3)C2=O)cc(OC)c1OC (stereo not given) | > 100 µM (inactive) | > 100 µM (inactive) | > 100 µM (inactive) | 26.9 µM (inactive) | > 100 µM (inactive) | 60.5 µM (inactive) | 50.1 µM (inactive) | > 100 µM (inactive) | > 100 µM (inactive) | 95.1 µM (inactive) | 97.5 µM (inactive) |  | > 100 µM (inactive) | 46.2 µM (inactive) | > 100 µM (inactive) | > 100 µM (inactive) | > 100 µM (inactive) |  | > 100 µM (inactive)
9 | CC1(C)N(OC2CCCCO2)C(c2ccccc2)C(c2ccccc2)=[N+]1[O-] (stereo not given) | > 100 µM (inactive) | > 100 µM (inactive) | > 100 µM (inactive) |  |  |  | 52.1 µM (inactive) | > 100 µM (inactive) |  | 93.5 µM (inactive) |  | > 100 µM (inactive) | > 100 µM (inactive) | > 100 µM (inactive) | > 100 µM (inactive) | > 100 µM (inactive) |  | 27 µM (inactive) | > 100 µM (inactive)
10 | COc1ccc(CNc2cc(=O)n(C)c(=O)[nH]2)cc1 | > 100 µM (inactive) | > 100 µM (inactive) | > 100 µM (inactive) | > 100 µM (inactive) |  | > 100 µM (inactive) | > 100 µM (inactive) | > 100 µM (inactive) | > 100 µM (inactive) | > 100 µM (inactive) | > 100 µM (inactive) | > 100 µM (inactive) | > 100 µM (inactive) | > 100 µM (inactive) | > 100 µM (inactive) | > 100 µM (inactive) | > 100 µM (inactive) | > 100 µM (inactive) | > 100 µM (inactive)
11 | c1ccc(CCNCc2ccco2)nc1 | > 100 µM (inactive) | > 100 µM (inactive) | > 100 µM (inactive) | > 100 µM (inactive) | > 100 µM (inactive) | > 100 µM (inactive) | > 100 µM (inactive) | > 100 µM (inactive) |  | > 100 µM (inactive) |  | > 100 µM (inactive) | > 100 µM (inactive) | > 83.9 µM (inactive) | > 100 µM (inactive) | > 100 µM (inactive) | > 100 µM (inactive) | 1 µM (active) | > 100 µM (inactive)
12 | O=C(/C=C/c1ccc(O)c(O)c1)OCCc1ccc2ccccc2c1 | 16.1 µM (inactive) | 10.8 µM (inactive) | 7.11 µM (inactive) | 2.54 µM (inactive) | 11.9 µM (inactive) | 2.38 µM (inactive) | 3.15 µM (inactive) |  |  | 3.64 µM (inactive) | 4.67 µM (inactive) | 2.32 µM (inactive) | 11 µM (inactive) | 2.74 µM (inactive) | 14.6 µM (inactive) | 14.8 µM (inactive) | 10.9 µM (inactive) |  | 13.5 µM (inactive)
13 | CC(=O)Oc1cc(OC(C)=O)c2c(c1C)CC[C@@H]1[C@@H]2CC[C@]2(C)[C@@H](OC(C)=O)CC[C@@H]12 | > 10 µM (inactive) | 18 µM (inactive) | 20 µM (inactive) | 16.7 µM (inactive) | 24.1 µM (inactive) | 16.7 µM (inactive) | 17.1 µM (inactive) |  | 8.15 µM (inactive) | 16.6 µM (inactive) |  | 17.2 µM (inactive) | 17.7 µM (inactive) | 19.3 µM (inactive) | 14.8 µM (inactive) | 17.4 µM (inactive) | 20.3 µM (inactive) | 16.8 µM (inactive) | 
14 | O=C1NC2ON=C(c3ccccc3)C2C2ON=C(c3ccccc3)N12 (stereo not given) | > 100 µM (inactive) |  | > 100 µM (inactive) |  | > 100 µM (inactive) | 40.5 µM (inactive) | 54 µM (inactive) |  |  | 69.2 µM (inactive) |  | 54.3 µM (inactive) | > 100 µM (inactive) | 77.4 µM (inactive) | > 100 µM (inactive) | > 100 µM (inactive) | > 100 µM (inactive) |  | > 100 µM (inactive)
15 | O=S1(=O)OCCOS(=O)(=O)C1S(=O)(=O)c1cccc2ccccc12 | > 100 µM (inactive) | > 100 µM (inactive) | > 10 µM (inactive) | > 100 µM (inactive) | > 100 µM (inactive) |  | > 100 µM (inactive) | > 100 µM (inactive) | > 100 µM (inactive) | > 100 µM (inactive) |  | > 100 µM (inactive) | > 100 µM (inactive) | > 100 µM (inactive) | > 100 µM (inactive) |  |  | > 100 µM (inactive) | 
16 | CSC1=N/C(=C\c2ccc(Cl)cc2)C(=O)N1CN1CCCCC1 | 99.1 µM (inactive) | 47.8 µM (inactive) | 31.6 µM (inactive) | 35.9 µM (inactive) | 89.3 µM (inactive) | 27.4 µM (inactive) | 32.4 µM (inactive) |  | 37.4 µM (inactive) | 49.5 µM (inactive) |  | 7.38 µM (inactive) |  | 5.33 µM (inactive) | 16.6 µM (inactive) | > 100 µM (inactive) | 27.4 µM (inactive) | 25 µM (inactive) | 35.1 µM (inactive)
17 | CCc1cc2c(c3c1CCC3=O)CC1(Cc3ccc(C)cc3C1)C2 (stereo not given) | 29.4 µM (inactive) | 30.5 µM (inactive) | > 100 µM (inactive) | 33.7 µM (inactive) |  | 23.8 µM (inactive) | 18.9 µM (inactive) | 33.2 µM (inactive) | 22.2 µM (inactive) | 71.3 µM (inactive) | 14.1 µM (inactive) | 42.9 µM (inactive) | 32.2 µM (inactive) | 32.2 µM (inactive) | 16.8 µM (inactive) | 13.5 µM (inactive) |  |  | 71.3 µM (inactive)
